# Data published in patent US5041567A, “Antibacterial monic acid derivatives” (Beecham Group plc, priority 1982, dated 1991).
# Where two headings read alike, the source gives them in different places.
# Key:
# [1] = tested on: Neisseria catarrhalis 1502; assay: MIC against human bacteria in vitro; type: cell-based; details: Neisseria catarrhalis 1502; 5% chocolated horse blood agar, 18 hours; read-out: MIC
# [2] = tested on: Staph. aureus B4 (pen. resistant); assay: MIC against veterinary bacteria in vitro; details: Staphylococcus aureus, 18 h
# Description: (§1) The activity of the compounds of the Examples against various veterinarily important bacteria, was assayed in vitro using two-fold serial dilutions in Diagnostic Sensitivity Test Agar inoculated with 10^4 organisms.
# [3] = tested on: Strep. agalactiae SPA1; assay: MIC against veterinary bacteria in vitro; details: Streptococcus agalactiae, SPA1, 18 h
# Description: as §1
# [4] = tested on: Strep. suis (group D) SPS11; assay: MIC against veterinary bacteria in vitro; details: Streptococcus suis, 18 h
# Description: as §1
# [5] = tested on: Staph. aureus Oxford; assay: MIC against human bacteria in vitro; type: cell-based; details: Staphylococcus aureus; Staph. aureus Oxford; 5% chocolated horse blood agar, 18 hours; read-out: MIC
# [6] = tested on: P. mirabilis 889; assay: MIC against human bacteria in vitro; type: cell-based; details: Proteus mirabilis; P. mirabilis 889; 5% chocolated horse blood agar, 18 hours; read-out: MIC
# [7] = tested on: Ps. aeruginosa NCTC 10662; assay: MIC against human bacteria in vitro; type: cell-based; details: Pseudomonas aeruginosa, NCTC10662; Ps. aeruginosa NCTC 10662; 5% chocolated horse blood agar, 18 hours; read-out: MIC
# [8] = tested on: Haemophilus influenzae Wy21; assay: MIC against human bacteria in vitro; type: cell-based; details: Haemophilus influenzae Wy21; 5% chocolated horse blood agar, 18 hours; read-out: MIC
# [9] = tested on: Strep. agalactiae 2788-B; assay: MIC against human bacteria in vitro; type: cell-based; details: Streptococcus agalactiae; Strep. agalactiae 2788-B; 5% chocolated horse blood agar, 18 hours; read-out: MIC
# [10] = tested on: Bacillus subtilis 6633; assay: MIC against human bacteria in vitro; type: cell-based; details: Bacillus subtilis 6633; 5% chocolated horse blood agar, 18 hours; read-out: MIC
# [11] = tested on: Corynebacterium xerosis 9755; assay: MIC against human bacteria in vitro; type: cell-based; details: Corynebacterium xerosis 9755; 5% chocolated horse blood agar, 18 hours; read-out: MIC
# [12] = tested on: Sarcina lutea 8340; assay: MIC against human bacteria in vitro; type: cell-based; details: Micrococcus luteus; Sarcina lutea 8340; 5% chocolated horse blood agar, 18 hours; read-out: MIC
# [13] = tested on: Strep. pyogenes R80/421-A; assay: MIC against human bacteria in vitro; type: cell-based; details: Streptococcus pyogenes; Strep. pyogenes R80/421-A; 5% chocolated horse blood agar, 18 hours; read-out: MIC
# [14] = tested on: Past. multocida PA1; assay: MIC against veterinary bacteria in vitro; details: Pasteurella multocida, PA1, 18 h
# Description: as §1
# [15] = tested on: M. bovigenitalium ATCC 14173; assay: MIC against mycoplasma in vitro; type: cell-based; details: 144 h
# [16] = tested on: M. suipneumoniae J2206/183^b; assay: MIC against mycoplasma in vitro; type: cell-based; details: Mesomycoplasma hyopneumoniae, 144 h
# [17] = tested on: M. suipneumoniae JF 435; assay: MIC against mycoplasma in vitro; type: cell-based; details: Mesomycoplasma hyopneumoniae, JF435, 144 h
# [18] = tested on: M. hyosynoviae ATCC 25591; assay: MIC against mycoplasma in vitro; type: cell-based; details: 144 h
# [19] = tested on: M. suipneumoniae Str. 11; assay: MIC against mycoplasma in vitro; type: cell-based; details: Mesomycoplasma hyopneumoniae
# [20] = tested on: M. dispar NCTC 10125; assay: MIC against mycoplasma in vitro; type: cell-based; details: 144 h
# [21] = tested on: M. suipneumoniae NB12; assay: MIC against mycoplasma in vitro; type: cell-based; details: Mesomycoplasma hyopneumoniae
# [22] = tested on: Pasteurella multocida 1633; assay: MIC against human bacteria in vitro; type: cell-based; details: Pasteurella multocida 1633; 5% chocolated horse blood agar, 18 hours; read-out: MIC
# [23] = tested on: M. suipneumoniae TAM 6N; assay: MIC against mycoplasma in vitro; type: cell-based; details: Mesomycoplasma hyopneumoniae, TAM6N, 144 h
# [24] = tested on: M. hyorhinis ATCC 25021; assay: MIC against mycoplasma in vitro; type: cell-based; details: Mesomycoplasma hyorhinis, ATCC25021, 144 h
# [25] = tested on: E. coli ESS; assay: MIC against human bacteria in vitro; type: cell-based; details: Escherichia coli; E. coli ESS; 5% chocolated horse blood agar, 18 hours; read-out: MIC
# [26] = tested on: Corynebacterium pyogenes CY1; assay: MIC against veterinary bacteria in vitro; details: CY1, 18 h
# Description: as §1
# [27] = tested on: Strep. uberis SPU1; assay: MIC against veterinary bacteria in vitro; details: Streptococcus uberis, SPU1, 18 h
# Description: as §1
# [28] = tested on: M. suipneumoniae ATCC 25095; assay: MIC against mycoplasma in vitro; type: cell-based; details: Mesomycoplasma hyopneumoniae, ATCC25095, 144 h
# [29] = tested on: M. suipneumoniae MS 16; assay: MIC against mycoplasma in vitro; type: cell-based; details: Mesomycoplasma hyopneumoniae, MS16, 144 h
# [30] = tested on: Staph. aureus Russell; assay: MIC against human bacteria in vitro; type: cell-based; details: Staphylococcus aureus; Staph. aureus Russell; 5% chocolated horse blood agar, 18 hours; read-out: MIC
# [31] = tested on: K. aerogenes A; assay: MIC against human bacteria in vitro; type: cell-based; details: Klebsiella aerogenes; K. aerogenes A; 5% chocolated horse blood agar, 18 hours; read-out: MIC
# [32] = tested on: Staph. aureus W2827; assay: MIC against human bacteria in vitro; type: cell-based; details: Staphylococcus aureus; Staph. aureus W2827; 5% chocolated horse blood agar, 18 hours; read-out: MIC
# [33] = tested on: Strep. faecalis I; assay: MIC against human bacteria in vitro; type: cell-based; details: Enterococcus faecalis; Strep. faecalis I; 5% chocolated horse blood agar, 18 hours; read-out: MIC
# [34] = tested on: S. dublin S7; assay: MIC against veterinary bacteria in vitro; details: Salmonella enterica, S7, 18 h
# Description: as §1
# [35] = tested on: Strep. spp. 64/848-C; assay: MIC against human bacteria in vitro; type: cell-based; details: Strep. spp. 64/848-C; 5% chocolated horse blood agar, 18 hours; read-out: MIC
# [36] = M. hyosynoviae ATCC 25591, 6 days, 37° C., read-out: MIC
# [37] = M. suipneumoniae TAM 6N, 6 days, 37° C., read-out: MIC
smiles,measurement,setting,value
"C/C(=C\c1ncc(C)o1)C[C@@H]1OC[C@H](C[C@@H]2O[C@H]2[C@@H](C)[C@H](C)O)[C@@H](O)[C@H]1O [Example 14, 5-Methyl-2-(1-normon-2-yl) oxazole A]",MIC,[1],16 µg/mL
same,MIC,[2],10 µg/mL
same,MIC,[3],> 80 µg/mL
same,MIC,[4],> 80 µg/mL
same,MIC,[5],16 µg/mL
same,MIC,[6],> 128 µg/mL
same,MIC,[7],> 128 µg/mL
same,MIC,[8],2 µg/mL
same,MIC,[9],32 µg/mL
same,MIC,[10],4 µg/mL
same,MIC,[11],> 128 µg/mL
same,MIC,[12],> 128 µg/mL
same,MIC,[13],32 µg/mL
same,MIC,[14],10 µg/mL
same,MIC,[15],0.1 µg/mL
same,MIC,[16],5 µg/mL
same,MIC,[17],5 µg/mL
same,MIC,[18],5 µg/mL
same,MIC,"[19]; STR.11, 144 h",2.5 µg/mL
same,MIC,"[20]; M. dispar NCTC 10125, 6 days, 37° C., read-out: MIC",0.5 µg/mL
same,MIC,"[21]; NB12, 144 h",5 µg/mL
same,MIC,[22],16 µg/mL
same,MIC,[23],5 µg/mL
same,MIC,[24],2.5 µg/mL
same,MIC,[25],32 µg/mL
same,MIC,[26],> 80 µg/mL
same,MIC,[27],2.5 µg/mL
same,MIC,[28],2.5 µg/mL
same,MIC,[29],2.5 µg/mL
same,MIC,[30],16 µg/mL
same,MIC,[31],> 128 µg/mL
same,MIC,[32],16 µg/mL
same,MIC,[33],> 128 µg/mL
same,MIC,[34],> 80 µg/mL
"C/C(=C\c1ncc(-c2cccc([N+](=O)[O-])c2)o1)C[C@@H]1OC[C@H](C[C@@H]2O[C@H]2[C@@H](C)[C@H](C)O)[C@@H](O)[C@H]1O [Example 6, 5-m-nitrophenyl-2-(1-normon-2-yl)oxazole A]",MIC,[1],4 µg/mL
same,MIC,[3],2.5 µg/mL
same,MIC,[4],10 µg/mL
same,MIC,[5],8 µg/mL
same,MIC,[6],> 128 µg/mL
same,MIC,[7],> 128 µg/mL
same,MIC,[8],2 µg/mL
same,MIC,[9],4 µg/mL
same,MIC,[10],2 µg/mL
same,MIC,[11],> 128 µg/mL
same,MIC,[12],> 128 µg/mL
same,MIC,[13],4 µg/mL
same,MIC,[14],10 µg/mL
same,MIC,[15],0.05 µg/mL
same,MIC,[16],0.05 µg/mL
same,MIC,[17],0.05 µg/mL
same,MIC,[18]; [36],0.5 µg/mL
same,MIC,"[19]; STR.11, 144 h",0.05 µg/mL
same,MIC,[20],0.025 µg/mL
same,MIC,"[21]; NB12, 144 h",0.05 µg/mL
same,MIC,[22],16 µg/mL
same,MIC,[23]; [37],0.1 µg/mL
same,MIC,[24],0.025 µg/mL
same,MIC,[25],16 µg/mL
same,MIC,[26],> 80 µg/mL
same,MIC,[27],0.07 µg/mL
same,MIC,[28],0.05 µg/mL
same,MIC,[29],0.025 µg/mL
same,MIC,[30],16 µg/mL
same,MIC,[31],> 128 µg/mL
same,MIC,[32],16 µg/mL
same,MIC,[33],> 128 µg/mL
same,MIC,[34],> 80 µg/mL
"C/C(=C\c1cc(-c2ccccc2)no1)C[C@@H]1OC[C@H](C[C@@H]2O[C@H]2[C@@H](C)[C@H](C)O)[C@@H](O)[C@H]1O [Example 31, 5-(1-Normon-2-yl)-3-phenylisoxazole A]",MIC,[1],8 µg/mL
same,MIC,[2],10 µg/mL
same,MIC,[4],> 80 µg/mL
same,MIC,[5],64 µg/mL
same,MIC,[6],> 128 µg/mL
same,MIC,[7],> 128 µg/mL
same,MIC,[8],16 µg/mL
same,MIC,[9],> 128 µg/mL
same,MIC,[10],64 µg/mL
same,MIC,[11],> 128 µg/mL
same,MIC,[13],128 µg/mL
same,MIC,"[15]; M. bovigenitalium ATCC 14173, 6 days, 37° C., read-out: MIC",5 µg/mL
same,MIC,"[16]; M. suipneumoniae J2206/183^b, 6 days, 37° C., read-out: MIC",10 µg/mL
same,MIC,"[17]; M. suipneumoniae JF 435, 6 days, 37° C., read-out: MIC",10 µg/mL
same,MIC,[35],> 128 µg/mL
same,MIC,[18]; [36],10 µg/mL
same,MIC,"[19]; 144 h, M. suipneumoniae Str. 11, 6 days, 37° C., read-out: MIC",5 µg/mL
same,MIC,[20],2.5 µg/mL
same,MIC,"[21]; 144 h, M. suipneumoniae NB12, Friis broth, 0.9% agarose, 6 days, 37° C., read-out: MIC",10 µg/mL
same,MIC,[22],64 µg/mL
same,MIC,[23]; [37],10 µg/mL
same,MIC,"[24]; M. hyorhinis ATCC 25021, 6 days, 37° C., read-out: MIC",5 µg/mL
same,MIC,[25],64 µg/mL
same,MIC,[26],> 80 µg/mL
same,MIC,[27],40 µg/mL
same,MIC,"[28]; M. suipneumoniae ATCC 25095, 6 days, 37° C., read-out: MIC",5 µg/mL
same,MIC,"[29]; M. suipneumoniae MS 16, 6 days, 37° C., read-out: MIC",5 µg/mL
same,MIC,[30],128 µg/mL
same,MIC,[31],> 128 µg/mL
same,MIC,[32],128 µg/mL
same,MIC,[33],> 128 µg/mL
same,MIC,[34],> 80 µg/mL
